Measurements from patent publication US6911465B1, “Anti-inflammatory indole derivatives” (AstraZeneca AB, priority 1999, dated 2005).
Read-outs that look alike come from different tables or passages of the source.

What was measured:
MCP-1 receptor B (CCR2B) = molecular target: T1, MCP-1 receptor B (CCR2B) (Homo sapiens, UniProt P41597); assay: hMCP-1 receptor binding assay (125I-MCP-1, CHO-CCR2B cell membranes)
T1 construct: expressed in transfected cells; membrane fragments
T1 sequence (P41597 1-360 isoform P41597-2): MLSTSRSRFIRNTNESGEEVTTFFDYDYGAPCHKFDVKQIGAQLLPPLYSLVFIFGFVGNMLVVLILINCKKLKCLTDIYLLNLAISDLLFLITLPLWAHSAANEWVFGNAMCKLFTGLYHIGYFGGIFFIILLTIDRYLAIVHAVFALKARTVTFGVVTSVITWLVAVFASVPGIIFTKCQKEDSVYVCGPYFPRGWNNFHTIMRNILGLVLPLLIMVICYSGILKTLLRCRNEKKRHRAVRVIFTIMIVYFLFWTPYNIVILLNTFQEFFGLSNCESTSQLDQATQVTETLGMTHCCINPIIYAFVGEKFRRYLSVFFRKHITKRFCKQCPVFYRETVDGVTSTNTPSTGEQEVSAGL
Description: The MCP-1 receptor B (CCR2B) cDNA was cloned by PCR from THP-1 cell RNA using suitable oligonucleotide primers based on the published MCP-1 receptor sequences (Charo et al., 1994, Proc. Natl. Acad. Sci USA, 91, 2752). The resulting PCR products were cloned into vector PCR-II™ (In Vitrogen, San Diego, Calif.). Error free CCR2B cDNA was subcloned as a Hind III-Not I fragment into the eukaryotic expression vector pCDNA3 (In Vitrogen) to generate pCDNA3/CC-CKR2A and pCDNA3/CCR2B respectively.
Linearised pCDNA3/CCR2B DNA was transfected into CHO-K1 cells by calcium phosphate precipitation (Wigler et al., 1979, Cell, 16, 777). Transfected cells were selected by the addition of Geneticin Sulphate (G418, Gibco BRL) at 1 mg/mlo, 24 hours after the cells had been transfected. Preparation of RNA and Norther Blotting were carried out as described previously (Needham et al., 1995, Prot. Express. Purific., 6, 134). CHO-K1 clone 7 (CHO-CCR2B) was identified as the highest MCP-1 receptor B-expressor. […]
^125I MCP-1 was preapred using Bolton and Hunter conjugation (Bolton et al., 1973, Biochem. J., 133, 529; Amersham International plc]. Equilibrium binding assays were carried out using the method of Ernst et al., 1994, J. Immunol., 152, 3541. Briefly, varying amounts of ^125I-labeled MCP-1 were added to 7 μg of purified CHO-CCR2B cell membranes in 100 μl of Binding Buffer. After 1 hour incubation at room temperature the binding reaction mixtures wre filtered and washed 5 times through a plate washer (Brandel MLR-96T Cell Harvester) using ice cold Binding Buffer. Filter mats (Brandel GF/B) were pre-soaked for 60 minutes in 0.3% polyethyleneimine prior to use. Following filtration individual filters were separated into 3.5 ml tubes (Sarsted No. 55.484) and bound ^125I-labeled MCP-1 was determined (LKB 1277 Gammamaster). […] Non-specific binding was determined by the incinsion of a 200-fold molar excess of unlabelled MCP-1 in the reaction. […]

THP-1 cells [1] = assay: hMCP-1 mediated chemotaxis of THP-1 cells; type: cell-based, human; details: biphasic response
Method: In vitro chemotaxis assays were performed using the human monocytic cell line THP-1. Cell migration through polycarbonate membranes was measured by enumerating those passing through either directly by Coulter counting or indirectly by use of a colourimetric viability assay measuring the cleavage of a tetrazolium salt by the microchondrial respiratory chain (Scudiero D. A. et al. 1988, Cancer Res., 48, 4827-4833).
Chemoattractants were introduced into a 96-well microtiter plate which forms the lower well of a chemotaxis chamber fitted with a PVP-free 5 μm poresize polycarbonate adhesive framed filter membrane (NeuroProbe MB series, Cabin John, MD 20818, USA) according to the manufacturer's instructions. […] The plate was incubated at 37° C. for 3 h and the absorbance of the soluble formazan product was read on a microtiter plate reader at 450 nm. The data was input into a spreadsheet, corrected for any random migration in the absence of chemoattractant and the average absorbance values, standard error of the mean, and significance tests were calculated. hMCP-1 induced concentration dependent cell migration with a characteristic biphasic response, maximal […].

THP-1 cells [2] = assay: MCP-1 mediated calcium flux in THP-1 cells; type: cell-based, human; details: stimulation of THP-1 cells, FURA-2, approximate; read-out: EC50 for rise in [Ca2+]i
Method: The human monocytic cell line THP-1 was grown in a synthetic cell culture medium RPMI 1640 supplemented with 10% foetal calf serum, 6 mM glutamine and Penicillin-Streptomycin (at 50 μg streptomycin/ml, Gibco BRL). THP-1 cells were washed in HBSS (lacking Ca^2+ and Mg^2+)+1 mg/ml BSA and resuspending in the same buffer at a density of 3×10^6 cells/ml. The cells were then loaded with […] FURA-2/AM for 30 min at 37° C., washed twice in HBSS, and resuspended in 1×10^6 cells/ml. THP-1 cell suspension (0.9 ml) was added to a 5 ml disposable curvette containing a magnetic stirrer bar and 2.1 ml of prewarmed (37° C.) HBSS containing 1 mg/ml BSA, 1 mM MgCl2 and 2 mM CaCl2. The cuvette was placed in a fluorescence spectrophootmeter (Perkin Elmer, Norwalk, Conn.) and preincubated for 4 min at 37° C. with stirring. Fluorescence was recorded over 70 sec and cells wre stimulated by addition of hMCP-1 to the curvette after 10 sec. [Ca^2+]i was measured by excitation at 340 nm and 380 nm alternately and subsequent measurement of the intensity of the fluorescence emission at 510 nm. […] Rmax is the maximal fluorescence ratio determined after additional of […] lonomycin, […] ratio determined by the subsequent addition of a Ca^2+ free solution containing 5 mM EGTA, and Sf2/Sb2 is the ratio of fluorescence values at 380 nm excitation determined at Rmin and Rmax, respectively. […]

Compound | IC50 (MCP-1 receptor B (CCR2B); competition with 100 pM labelled MCP-1, CHO-CCR2B membranes, 0.01-50 μM, read-out: IC50 in hMCP-1 receptor binding assay) | IC50 (MCP-1 receptor B (CCR2B); cold competition, unlabelled MCP-1 vs 100 pM 125I-MCP-1, CHO-CCR2B membrane fragments, read-out: IC50 of MCP-1 binding to CCR2B) | Kd (MCP-1 receptor B (CCR2B); equilibrium binding, CHO-CCR2B membrane fragments) | concentration of maximal cell migration (THP-1 cells [1]) | EC50 (THP-1 cells [2])
O=C(CN1CCOCC1)Nc1cccc2c1cc(C(=O)O)n2Cc1ccc(Cl)c(Cl)c1 [Compound 2] | 1700 nM | – | – | – | –
MCP-1: Human Monocyte Chemoattractant Protein-1, the chemokine ligand of the CCR2 receptor | – | 0.11 nM | 0.12 nM | 0.5-1.0 nm | ~2 nM
